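Dose response: 5 concentrations. Exposure: 48 h. Format: 96-well plates. Endpoint: linear interpolation; highest concentration if not reached. At the GI50, growth is halved. TGI: concentration producing complete growth inhibition.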
Legend:
Experiment in all cases: NCI anticancer screen, dose series, 48 h
[1] = system: 786-0 renal
[2] = system: A498 renal
[3] = system: A549 NSCLC
[4] = system: ACHN renal
[5] = system: BT-549 breast
[6] = system: CAKI-1 renal
[7] = system: CCRF-CEM leukemia
[8] = system: COLO 205 colon
[9] = system: DU-145 prostate
[10] = system: EKVX NSCLC
[11] = system: HCC-2998 colon
[12] = system: HCT-116 colon
[13] = system: HCT-15 colon
[14] = system: HL-60(TB) leukemia
[15] = system: HOP-62 NSCLC
[16] = system: HOP-92 NSCLC
[17] = system: HS 578T breast
[18] = system: HT29 colon
[19] = system: IGROV1 ovarian
[20] = system: K-562 leukemia
[21] = system: KM12 colon
[22] = system: LOX IMVI melanoma
[23] = system: M14 melanoma
[24] = system: MALME-3M melanoma
[25] = system: MCF7 breast
[26] = system: MDA-MB-231 breast
[27] = system: MDA-MB-435
[28] = system: MOLT-4 leukemia
[29] = system: NCI-H226 lung
[30] = system: NCI-H23 lung
[31] = system: NCI-H460 lung
[32] = system: NCI-H522 lung
[33] = system: NCI/ADR-RES ovarian
[34] = system: OVCAR-3 ovarian
[35] = system: OVCAR-4 ovarian
[36] = system: OVCAR-5 ovarian
[37] = system: OVCAR-8 ovarian
[38] = system: PC-3 prostate
[39] = system: RPMI-8226 leukemia
[40] = system: RXF 393 renal
[41] = system: SF-268 CNS
[42] = system: SF-295 CNS
[43] = system: SF-539 CNS
[44] = system: SK-MEL-2 melanoma
[45] = system: SK-MEL-28 melanoma
[46] = system: SK-MEL-5 melanoma
[47] = system: SK-OV-3 ovarian
[48] = system: SN12C renal
[49] = system: SNB-19 CNS
[50] = system: SNB-75 CNS
[51] = system: SR leukemia
[52] = system: SW-620 colon
[53] = system: T-47D breast
[54] = system: TK-10 renal
[55] = system: U251 CNS
[56] = system: UACC-257 melanoma
[57] = system: UACC-62 melanoma
[58] = system: UO-31 renal

## COC(=O)c1c2c(c(C)[n+]([O-])c1C)C(=O)C(NCc1ccc(OC)cc1)=CC2=O
[1]
  GI50: 3.15 µM
  TGI: 18.8 µM
[2]
  GI50: 2.06 µM
  TGI: 4.97 µM
[3]
  GI50: 2.9 µM
  TGI: 10.2 µM
[4]
  GI50: 2.35 µM
  TGI: 9.11 µM
[5]
  GI50: 2.96 µM
  TGI: 13.3 µM
[6]
  GI50: 2.9 µM
  TGI: 11.2 µM
[7]
  GI50: 2.86 µM
  TGI: 12.8 µM
[8]
  GI50: 0.839 µM
  TGI: 2.75 µM
[9]
  GI50: 3.02 µM
  TGI: 10.2 µM
[10]
  GI50: 1.88 µM
  TGI: 4.44 µM
[11]
  GI50: 2.27 µM
  TGI: 5.94 µM
[12]
  GI50: 2.17 µM
  TGI: 7.13 µM
[13]
  GI50: 1.64 µM
  TGI: 3.72 µM
[14]
  GI50: 1.67 µM
  TGI: 5.25 µM
[15]
  GI50: 3.64 µM
  TGI: 97.2 µM
[16]
  GI50: 2.64 µM
  TGI: 5.91 µM
[17]
  GI50: 3.81 µM
  TGI: 36.6 µM
[18]
  GI50: 2.15 µM
  TGI: > 100 µM
[19]
  GI50: 1.5 µM
  TGI: 3.45 µM
[20]
  GI50: 2.67 µM
  TGI: > 100 µM
[21]
  GI50: 2.19 µM
  TGI: 8.68 µM
[22]
  GI50: 2.41 µM
  TGI: 7.3 µM
[23]
  GI50: 1.81 µM
  TGI: 3.71 µM
[24]
  GI50: 0.28 µM
  TGI: 1.1 µM
[25]
  GI50: 1.41 µM
  TGI: 3.35 µM
[26]
  GI50: 2.2 µM
  TGI: 6.14 µM
[27]
  GI50: 1.73 µM
  TGI: 3.15 µM
[28]
  GI50: 2.36 µM
  TGI: 6.63 µM
[29]
  GI50: 3.45 µM
  TGI: 13.5 µM
[30]
  GI50: 1.81 µM
  TGI: 4.26 µM
[31]
  GI50: 1.7 µM
  TGI: 6.39 µM
[32]
  GI50: 1.95 µM
  TGI: 4.73 µM
[33]
  GI50: 2.42 µM
  TGI: 7.49 µM
[34]
  GI50: 0.315 µM
  TGI: 1.2 µM
[35]
  GI50: 1.12 µM
  TGI: 2.38 µM
[36]
  GI50: 1.8 µM
  TGI: 4.06 µM
[37]
  GI50: 2.78 µM
  TGI: > 100 µM
[38]
  GI50: 2.31 µM
  TGI: 10.4 µM
[39]
  GI50: 2.41 µM
  TGI: 7.78 µM
[40]
  GI50: 1.55 µM
  TGI: 3.7 µM
[41]
  GI50: 2.64 µM
  TGI: 10.3 µM
[42]
  GI50: 1.79 µM
  TGI: 5.09 µM
[43]
  GI50: 1.68 µM
  TGI: 3.39 µM
[44]
  GI50: 2.23 µM
  TGI: 5.88 µM
[45]
  GI50: 2.95 µM
  TGI: 11.3 µM
[46]
  GI50: 1.13 µM
  TGI: 2.39 µM
[47]
  GI50: 4.11 µM
  TGI: 15.8 µM
[48]
  GI50: 1.62 µM
  TGI: 3.65 µM
[49]
  GI50: 2.11 µM
  TGI: 5.03 µM
[50]
  GI50: 3.5 µM
  TGI: 14.3 µM
[51]
  GI50: 2.47 µM
  TGI: > 100 µM
[52]
  GI50: 1.95 µM
  TGI: 4.26 µM
[53]
  GI50: 2.12 µM
  TGI: 5.47 µM
[54]
  GI50: 4.62 µM
  TGI: 20.1 µM
[55]
  GI50: 2.57 µM
  TGI: 8.82 µM
[56]
  GI50: 1.63 µM
  TGI: 3.42 µM
[57]
  GI50: 1.72 µM
  TGI: 3.62 µM
[58]
  GI50: 2.48 µM
  TGI: 10 µM

## COc1cc2cc(NCc3cccc(Cl)c3)nc(C)c2cc1OC
[1]
  GI50: 1.7 µM
  TGI: 20.4 µM
[2]
  GI50: 1.17 µM
  TGI: 11.6 µM
[3]
  GI50: 3.21 µM
  TGI: 37.6 µM
[4]
  GI50: 2.46 µM
  TGI: 23.1 µM
[5]
  GI50: 1.47 µM
  TGI: 8.96 µM
[6]
  GI50: 2.7 µM
  TGI: 24.4 µM
[7]
  GI50: 2.54 µM
  TGI: > 100 µM
[8]
  GI50: 1.62 µM
  TGI: 9.3 µM
[9]
  GI50: 5.41 µM
  TGI: 20.9 µM
[10]
  GI50: 3.52 µM
  TGI: 36.5 µM
[11]
  GI50: 2.27 µM
  TGI: 14.5 µM
[12]
  GI50: 0.532 µM
  TGI: 9.63 µM
[13]
  GI50: 2.83 µM
  TGI: 19.9 µM
[14]
  GI50: 2.95 µM
  TGI: 55.9 µM
[15]
  GI50: 0.862 µM
  TGI: 22.2 µM
[16]
  GI50: 0.597 µM
  TGI: 14.3 µM
[17]
  GI50: 4.87 µM
  TGI: 56.7 µM
[18]
  GI50: 0.462 µM
  TGI: 11.4 µM
[19]
  GI50: 1.32 µM
  TGI: 13.9 µM
[20]
  GI50: 1.68 µM
  TGI: 19.8 µM
[21]
  GI50: 2.62 µM
  TGI: 15.8 µM
[22]
  GI50: 0.442 µM
  TGI: 4.36 µM
[23]
  GI50: 0.52 µM
  TGI: 10.1 µM
[24]
  GI50: 10.3 µM
  TGI: 23.8 µM
[25]
  GI50: 4.72 µM
  TGI: 23 µM
[26]
  GI50: 1.18 µM
  TGI: 16.6 µM
[27]
  GI50: 0.969 µM
  TGI: 6.26 µM
[28]
  GI50: 3.21 µM
  TGI: 30.4 µM
[29]
  GI50: 4.35 µM
  TGI: 26.3 µM
[30]
  GI50: 0.913 µM
  TGI: 13.9 µM
[31]
  GI50: 1.27 µM
  TGI: 14.6 µM
[32]
  GI50: 1.01 µM
  TGI: 10.4 µM
[33]
  GI50: 2.02 µM
  TGI: 22.3 µM
[34]
  GI50: 3.72 µM
  TGI: 16.3 µM
[35]
  GI50: 1.83 µM
  TGI: 25.4 µM
[36]
  GI50: 1.5 µM
  TGI: 25.4 µM
[37]
  GI50: 3.04 µM
  TGI: 23.6 µM
[38]
  GI50: 3.14 µM
  TGI: 23.7 µM
[39]
  GI50: 0.539 µM
  TGI: 23.4 µM
[40]
  GI50: 3.57 µM
  TGI: 16.3 µM
[41]
  GI50: 2.97 µM
  TGI: 23.9 µM
[42]
  GI50: 0.513 µM
  TGI: 16.8 µM
[43]
  GI50: 1.37 µM
  TGI: 7.54 µM
[44]
  GI50: 1.56 µM
  TGI: 12.6 µM
[45]
  GI50: 0.865 µM
  TGI: 5.42 µM
[46]
  GI50: 3.27 µM
  TGI: 13.7 µM
[47]
  GI50: 4.94 µM
  TGI: 33.5 µM
[48]
  GI50: 2.21 µM
  TGI: 17.4 µM
[49]
  GI50: 2.12 µM
  TGI: 31.8 µM
[50]
  GI50: 2.83 µM
  TGI: 19.4 µM
[51]
  GI50: 1.66 µM
  TGI: 44.9 µM
[52]
  GI50: 1.93 µM
  TGI: 12.6 µM
[53]
  GI50: 0.459 µM
  TGI: 9.31 µM
[54]
  GI50: 4.15 µM
  TGI: 36.6 µM
[55]
  GI50: 2.4 µM
  TGI: 16 µM
[56]
  GI50: 4.61 µM
  TGI: 19.3 µM
[57]
  GI50: 0.498 µM
  TGI: 5.41 µM
[58]
  GI50: 0.678 µM
  TGI: 14.4 µM

— PubChem BioAssay (NCI)
